For experiment [1], the target named is Mitogen-activated protein kinase 8 (Homo sapiens) (UniProt P45983). Nature of the experiment: Inhibition of JNK1 (unknown origin) at 10 uM after 40 mins by scintillation counting analysis.
For experiment [2], the system named is U-937. Nature of the experiment: Antiproliferative activity against human U937 cells after 24 hrs by MTT assay. It counts as functional.
Experiment [3] has as its target Glycogen synthase kinase-3 beta (Homo sapiens) (UniProt P49841). Briefly: Inhibition of GSK3b (unknown origin) at 10 uM after 40 mins by scintillation counting analysis.
The target of experiment [4] is Insulin-like growth factor 1 receptor (Homo sapiens) (UniProt P08069). Nature of the experiment: Inhibition of IGF1R (unknown origin) at 10 uM after 40 mins by scintillation counting analysis.
Experiment [5] concerns the target Cyclin-dependent kinase 2/cyclin E (Homo sapiens) (UniProt P24864+P24941+O96020). Nature of the experiment: Inhibition of CDK2/cyclin E (unknown origin) at 10 uM after 40 mins by scintillation counting analysis. It counts as protein-complex assay.
Experiment [6] addresses Tyrosine-protein kinase ITK/TSK (Homo sapiens) (UniProt Q08881). Nature of the experiment: Inhibition of ITK (unknown origin) at 10 uM after 40 mins by scintillation counting analysis.
In experiment [7] the target is Tyrosine-protein kinase Lyn (Homo sapiens, UniProt P07948). Nature of the experiment: Inhibition of Lyn (unknown origin) at 10 uM after 40 mins by scintillation counting analysis.
The target of experiment [8] is Tyrosine-protein kinase Lck (Homo sapiens) (UniProt P06239). Nature of the experiment: Inhibition of LCK (unknown origin) at 10 uM after 40 mins by scintillation counting analysis.
Experiment [9] concerns the target Vascular endothelial growth factor receptor 3 (Homo sapiens) (UniProt P35916). Nature of the experiment: Inhibition of FLT4 (unknown origin) at 10 uM after 40 mins by scintillation counting analysis.
In experiment [10] the target is Vascular endothelial growth factor receptor 1 (Homo sapiens) (UniProt P17948). Nature of the experiment: Inhibition of FLT1 (unknown origin) at 10 uM after 40 mins by scintillation counting analysis.

The source made the active and inactive calls. The rule behind the calls is not given here.

For one compound, inhibition and GI50 results are on record in ChEMBL document CHEMBL3616395, “Discovery of 4-arylamido 3-methyl isoxazole derivatives as novel FMS kinase inhibitors” (Eur J Med Chem, 2015).

Mitogen-activated protein kinase 8 (Homo sapiens), sequence (P45983 whole entry): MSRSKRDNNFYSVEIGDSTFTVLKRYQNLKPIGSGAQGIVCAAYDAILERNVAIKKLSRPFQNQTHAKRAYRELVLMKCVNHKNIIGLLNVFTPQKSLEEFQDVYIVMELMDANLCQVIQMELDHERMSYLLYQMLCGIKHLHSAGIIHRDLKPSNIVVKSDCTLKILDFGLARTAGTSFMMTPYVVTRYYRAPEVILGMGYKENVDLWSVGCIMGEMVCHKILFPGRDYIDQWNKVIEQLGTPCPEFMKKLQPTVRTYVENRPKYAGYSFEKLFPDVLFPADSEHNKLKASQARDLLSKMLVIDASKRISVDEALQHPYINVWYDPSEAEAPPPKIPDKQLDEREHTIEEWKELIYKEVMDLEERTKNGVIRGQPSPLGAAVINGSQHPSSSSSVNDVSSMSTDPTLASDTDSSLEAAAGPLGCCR
Tyrosine-protein kinase ITK/TSK (Homo sapiens), sequence (Q08881 whole entry): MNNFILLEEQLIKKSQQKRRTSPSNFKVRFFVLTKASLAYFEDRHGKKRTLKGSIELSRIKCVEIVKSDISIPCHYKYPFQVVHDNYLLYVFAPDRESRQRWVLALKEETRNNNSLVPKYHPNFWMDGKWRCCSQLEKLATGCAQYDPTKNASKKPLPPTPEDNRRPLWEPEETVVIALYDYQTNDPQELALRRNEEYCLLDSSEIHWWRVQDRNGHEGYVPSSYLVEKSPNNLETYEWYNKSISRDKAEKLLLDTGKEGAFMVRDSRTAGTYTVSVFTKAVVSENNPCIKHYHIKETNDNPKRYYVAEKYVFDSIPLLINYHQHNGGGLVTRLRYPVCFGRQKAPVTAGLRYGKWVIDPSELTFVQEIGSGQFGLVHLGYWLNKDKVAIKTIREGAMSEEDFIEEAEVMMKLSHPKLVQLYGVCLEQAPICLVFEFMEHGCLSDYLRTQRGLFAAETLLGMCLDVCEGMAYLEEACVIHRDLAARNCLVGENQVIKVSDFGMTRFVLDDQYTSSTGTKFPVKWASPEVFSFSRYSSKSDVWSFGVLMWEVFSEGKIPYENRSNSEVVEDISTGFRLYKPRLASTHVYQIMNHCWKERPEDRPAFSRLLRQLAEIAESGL
Glycogen synthase kinase-3 beta (Homo sapiens), sequence (P49841 whole entry, looked up): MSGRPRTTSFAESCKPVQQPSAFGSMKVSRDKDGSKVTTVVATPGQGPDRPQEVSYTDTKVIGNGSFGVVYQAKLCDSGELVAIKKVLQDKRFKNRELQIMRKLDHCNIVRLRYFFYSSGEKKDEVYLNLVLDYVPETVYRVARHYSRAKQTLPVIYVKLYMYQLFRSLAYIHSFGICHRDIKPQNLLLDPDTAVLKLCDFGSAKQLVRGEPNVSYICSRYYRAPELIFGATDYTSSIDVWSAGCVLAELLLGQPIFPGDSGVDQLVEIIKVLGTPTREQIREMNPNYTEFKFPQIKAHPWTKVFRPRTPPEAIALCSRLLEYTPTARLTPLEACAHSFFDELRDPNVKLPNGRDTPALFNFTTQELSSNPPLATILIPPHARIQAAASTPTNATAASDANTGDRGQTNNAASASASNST
Insulin-like growth factor 1 receptor (Homo sapiens), sequence (P08069 31-736 limits assumed): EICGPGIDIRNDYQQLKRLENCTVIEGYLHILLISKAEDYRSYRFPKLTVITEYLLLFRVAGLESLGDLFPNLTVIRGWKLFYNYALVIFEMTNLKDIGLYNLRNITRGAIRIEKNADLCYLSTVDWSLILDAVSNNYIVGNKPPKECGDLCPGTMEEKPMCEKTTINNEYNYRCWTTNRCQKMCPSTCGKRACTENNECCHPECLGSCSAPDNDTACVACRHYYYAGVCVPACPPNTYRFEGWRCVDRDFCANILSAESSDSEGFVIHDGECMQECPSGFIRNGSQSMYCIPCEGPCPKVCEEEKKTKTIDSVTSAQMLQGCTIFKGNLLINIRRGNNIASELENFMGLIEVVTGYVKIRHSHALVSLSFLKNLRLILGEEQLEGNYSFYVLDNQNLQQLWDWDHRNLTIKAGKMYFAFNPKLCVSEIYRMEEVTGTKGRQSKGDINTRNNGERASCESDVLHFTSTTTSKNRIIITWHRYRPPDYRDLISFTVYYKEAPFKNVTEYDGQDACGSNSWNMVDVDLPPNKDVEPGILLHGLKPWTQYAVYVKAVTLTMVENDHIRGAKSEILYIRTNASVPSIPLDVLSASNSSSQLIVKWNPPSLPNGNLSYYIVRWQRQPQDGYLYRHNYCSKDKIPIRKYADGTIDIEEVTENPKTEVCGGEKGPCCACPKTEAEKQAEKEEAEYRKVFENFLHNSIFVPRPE
Insulin-like growth factor 1 receptor (Homo sapiens), sequence (P08069 741-1367 limits assumed): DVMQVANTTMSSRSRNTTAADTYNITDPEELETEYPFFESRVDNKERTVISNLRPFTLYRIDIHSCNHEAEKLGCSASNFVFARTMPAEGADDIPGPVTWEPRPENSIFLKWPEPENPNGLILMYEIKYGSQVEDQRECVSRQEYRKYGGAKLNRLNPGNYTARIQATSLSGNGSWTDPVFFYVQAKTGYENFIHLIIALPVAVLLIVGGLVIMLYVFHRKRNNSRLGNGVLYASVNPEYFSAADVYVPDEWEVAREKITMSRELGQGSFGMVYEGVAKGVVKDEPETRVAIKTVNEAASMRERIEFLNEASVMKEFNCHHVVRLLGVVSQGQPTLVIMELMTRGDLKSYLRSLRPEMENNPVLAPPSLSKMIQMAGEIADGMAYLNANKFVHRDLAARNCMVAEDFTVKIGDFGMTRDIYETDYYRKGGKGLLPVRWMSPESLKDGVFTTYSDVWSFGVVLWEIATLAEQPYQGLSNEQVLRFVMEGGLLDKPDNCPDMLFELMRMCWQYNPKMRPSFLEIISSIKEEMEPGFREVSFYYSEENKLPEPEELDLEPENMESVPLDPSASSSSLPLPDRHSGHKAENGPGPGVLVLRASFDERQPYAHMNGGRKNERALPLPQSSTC
Tyrosine-protein kinase Lck (Homo sapiens), sequence (P06239 2-509 limits assumed): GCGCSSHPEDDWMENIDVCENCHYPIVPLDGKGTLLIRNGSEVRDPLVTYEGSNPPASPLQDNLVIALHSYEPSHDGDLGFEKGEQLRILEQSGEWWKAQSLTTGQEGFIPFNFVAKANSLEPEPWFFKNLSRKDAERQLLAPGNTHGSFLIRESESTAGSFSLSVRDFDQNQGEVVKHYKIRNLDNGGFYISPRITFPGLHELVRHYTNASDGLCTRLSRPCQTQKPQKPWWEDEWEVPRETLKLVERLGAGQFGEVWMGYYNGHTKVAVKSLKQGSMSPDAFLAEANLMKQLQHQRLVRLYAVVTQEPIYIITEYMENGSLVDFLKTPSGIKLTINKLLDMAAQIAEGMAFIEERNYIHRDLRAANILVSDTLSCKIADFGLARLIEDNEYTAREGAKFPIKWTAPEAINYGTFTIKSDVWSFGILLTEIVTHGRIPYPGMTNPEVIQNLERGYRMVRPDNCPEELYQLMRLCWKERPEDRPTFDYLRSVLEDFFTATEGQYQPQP
Tyrosine-protein kinase Lyn, sequence (P07948 2-512 limits assumed): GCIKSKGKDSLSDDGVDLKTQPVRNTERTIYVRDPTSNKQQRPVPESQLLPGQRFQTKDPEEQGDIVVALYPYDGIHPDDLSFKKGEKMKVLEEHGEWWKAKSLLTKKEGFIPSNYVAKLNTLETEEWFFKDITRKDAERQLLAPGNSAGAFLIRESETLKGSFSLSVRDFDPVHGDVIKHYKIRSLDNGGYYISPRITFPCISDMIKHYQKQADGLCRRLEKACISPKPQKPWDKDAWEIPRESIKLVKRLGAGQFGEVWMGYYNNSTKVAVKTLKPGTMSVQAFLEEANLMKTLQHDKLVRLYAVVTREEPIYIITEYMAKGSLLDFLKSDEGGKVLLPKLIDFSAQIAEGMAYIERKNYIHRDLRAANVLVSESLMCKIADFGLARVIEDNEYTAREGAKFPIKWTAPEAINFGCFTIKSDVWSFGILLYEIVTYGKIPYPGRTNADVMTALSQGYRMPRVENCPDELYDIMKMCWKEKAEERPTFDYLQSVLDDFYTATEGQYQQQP

`Cc1ccccc1C(=O)Nc1cnoc1C`: the inhibition entry in experiment [1], in experiment [3], in [4], in experiment [5], in experiment [6] and in experiment [7] was “inactive” in each case. The inhibition entry in experiment [8], in experiment [9] and in [10] was “inactive” throughout. Besides, in experiment [2], the GI50 result was “Active”.
